Our source for the IC50 values is patent US20240002391A1, “4-ALKOXYPYRROLO[2,1-F][1,2,4]TRIAZINES AND PREPARATION AND USES THEREOF” (BioSplice Therapeutics, Inc., priority 2022, published 2024).

Structures are written as SMILES.

In this assay the target is recombinant DYRK1A kinase (Homo sapiens (Human), UniProt Q13627). Description: DYRK1A kinase assay (Ser/Thr 18 peptide Z-lyte FRET). Type of assay: biochemical. The note with it: DYRK1A kinase activity, Z-lyte Ser/Thr 18 peptide, 15 μM ATP; method text calls the value IC50; read-out: EC50 (the source's name). As to the method:
Representative compounds were screened using the assay procedure for DYRK1A kinase activity as described below.
Each compound was dissolved in DMSO as a 10 mM stock and used to prepare compound source plates. Serial dilution (1:3, 11-point dose-response curves from 10 μM to 0.00016 μM) and compound transfer was performed using the ECHO 550 (Labcyte, Sunnyvale, CA) into 1536-well black-walled round bottom plates (Coming).
The DYRK1A kinase assay was run using the Ser/Thr 18 peptide Z-lyte assay kit according to manufacturer's instructions (Life Technologies-a Division of Thermo-Fisher). This is a non-radioactive assay using fluorescence resonance energy transfer (FRET) between coumarin and fluorescein to detect kinase activity which is represented as a ratio of coumarin emission/fluorescein emission.
Briefly, recombinant DYRK1A kinase, ATP and Ser/Thr peptide 18 were prepared in 1X Kinase buffer to final concentrations of 0.25 μg/mL, 15 μM, and 4 μM respectively. The mixture was allowed to incubate with the representative compounds for one hour at room temperature. All reactions were performed in duplicate. Unphosphorylated (“0% Control”) and phosphorylated (“100% control”) forms of Ser/Thr 18 served as control reactions. Additionally, an 11-point dose-response curve of Staurosporine (luM top) was run to serve as a positive compound control.
After incubation, Development Reagent A was diluted in Development Buffer then added to the reaction and allowed to further incubate for one hour at room temperature. The plate was read at Ex 400 Em 455 to detect the coumarin signal and Ex 400 Em 520 to measure the signal (EnVision Multilabel Plate Reader, PerkinElmer).
The Emission ratio (Em) was calculated as a ratio of the coumarin (C) emission signal (at 445 nm)/Fluorescein (F) emission signal (at 520 nm). The percent phosphorylation was then calculated using the following formula: [1−((Em ratio X F100%)-C100%)/((C0%-C100%) +(Em ratio X (F100%−F0%)))]. Dose-response curves were generated, and inhibitory concentration (IC50) values were calculated using non-linear regression curve fit in the Dotmatics' Studies Software (Bishops Stortford, UK).
Take `COc1nc(N[C@H]2CC[C@](C)(O)CC2)nn2ccc(-c3ccc4nc(C)n(CC(F)F)c4c3)c12` [Compound 112, trans-4-((5-(1-(2,2-Difluoroethyl)-2-methyl-1H-benzo[d]imidazol-6-yl)-4-methoxypyrrolo[2,1-f][1,2,4]triazin-2-yl)amino)-1-methylcyclohexan-1-ol]: the IC50 was found to be 2.6 nM.
The value for `COc1nc(N[C@H]2CN(C)C[C@H]2F)nn2ccc(-c3ccc4nc(C)n(CC(F)F)c4c3)c12` [Compound 113, 5-(1-(2,2-Difluoroethyl)-2-methyl-1H-benzo[d]imidazol-6-yl)-N-((3S,4R)-4-fluoro-1-methylpyrrolidin-3-yl)-4-methoxypyrrolo[2,1-f][1,2,4]triazin-2-amine] was 3.3 nM; that for `COc1nc(N[C@@H]2CN(C)C[C@@H]2F)nn2ccc(-c3ccc4nc(C)n(CC(F)F)c4c3)c12` [Compound 114, 5-(1-(2,2-Difluoroethyl)-2-methyl-1H-benzo[d]imidazol-6-yl)-N-((3R,4S)-4-fluoro-1-methylpyrrolidin-3-yl)-4-methoxypyrrolo[2,1-f][1,2,4]triazin-2-amine] was 1.9 nM.
With `COc1nc(NC2CCN(C(C)=O)CC2)nn2ccc(-c3ccc4nc(C)n(CC(F)F)c4c3)c12` [Compound 122, 1-(4-((5-(1-(2,2-Difluoroethyl)-2-methyl-1H-benzo[d]imidazol-6-yl)-4-methoxypyrrolo[2,1-f]1[1,2,4]triazin-2-yl)amino)piperidin-1-yl)ethan-1-one] the figure was 1.6 nM; with `COc1nc(N[C@@H]2CCN(C)C[C@@H]2F)nn2ccc(-c3ccc4nc(C)n(CC(F)F)c4c3)c12` [Compound 124, 5-(1-(2,2-Difluoroethyl)-2-methyl-1H-benzo[d]imidazol-6-yl)-N-((3S,4R)-3-fluoro-1-methylpiperidin-4-yl)-4-methoxypyrrolo[2,1-f][1,2,4]triazin-2-amine], 2.8 nM; with `COc1nc(N[C@H]2CCN(C)C[C@H]2F)nn2ccc(-c3ccc4nc(C)n(CC(F)F)c4c3)c12` [Compound 127, 5-(1-(2,2-Difluoroethyl)-2-methyl-1H-benzo[d]imidazol-6-yl)-N-((3R,4S)-3-fluoro-1-methylpiperidin-4-yl)-4-methoxypyrrolo[2,1-f][1,2,4]triazin-2-amine], 2.2 nM.
The value for `COc1nc(N[C@@H]2CCN(CCF)C[C@@H]2F)nn2ccc(-c3ccc4nc(C)n(CC(F)F)c4c3)c12` [Compound 129, 5-(1-(2,2-Difluoroethyl)-2-methyl-1H-benzo[d]imidazol-6-yl)-N-((3S,4R)-3-fluoro-1-(2-fluoroethyl)piperidin-4-yl)-4-methoxypyrrolo[2,1-f][1,2,4]triazin-2-amine] was 2.6 nM; that for `COc1nc(N[C@H]2CCN(C3COC3)C[C@H]2F)nn2ccc(-c3ccc4nc(C)n(CC(F)F)c4c3)c12` [Compound 137, 5-(1-(2,2-Difluoroethyl)-2-methyl-1H-benzo[d]imidazol-6-yl)-N-((3R,4S)-3-fluoro-1-(oxetan-3-yl)piperidin-4-yl)-4-methoxypyrrolo[2,1-f][1,2,4]triazin-2-amine] was 1.9 nM.
As to `COc1nc(N[C@@H]2CCN(C)CC2(F)F)nn2ccc(-c3ccc4nc(C)n(CC(F)F)c4c3)c12` [Compound 138, (R)—N-(3,3-Difluoro-1-methylpiperidin-4-yl)-5-(1-(2,2-difluoroethyl)-2-methyl-1H-benzo[d]imidazol-6-yl)-4-methoxypyrrolo[2,1-f][1,2,4]triazin-2-amine], the IC50 amounted to 4.3 nM.
The value for `COc1nc(N[C@H]2CCN(C)CC2(F)F)nn2ccc(-c3ccc4nc(C)n(CC(F)F)c4c3)c12` [Compound 139, (S)—N-(3,3-Difluoro-1-methylpiperidin-4-yl)-5-(1-(2,2-difluoroethyl)-2-methyl-1H-benzo[d]imidazol-6-yl)-4-methoxypyrrolo[2,1-f][1,2,4]triazin-2-amine] was 6.9 nM; that for `COc1nc(N[C@@H]2CCN(C3CCC3)CC2(F)F)nn2ccc(-c3ccc4nc(C)n(CC(F)F)c4c3)c12` [Compound 140, (R)—N-(1-Cyclobutyl-3,3-difluoropiperidin-4-yl)-5-(1-(2,2-difluoroethyl)-2-methyl-1H-benzo[d]imidazol-6-yl)-4-methoxypyrrolo[2,1-f][1,2,4]triazin-2-amine] was 10.7 nM.
Consider `COc1nc(N[C@H]2CCN(C3CCC3)CC2(F)F)nn2ccc(-c3ccc4nc(C)n(CC(F)F)c4c3)c12` [Compound 141, (S)—N-(1-Cyclobutyl-3,3-difluoropiperidin-4-yl)-5-(1-(2,2-difluoroethyl)-2-methyl-1H-benzo[d]imidazol-6-yl)-4-methoxypyrrolo[2,1-f][1,2,4]triazin-2-amine], for which the IC50 was 21.8 nM.
In the case of `COc1nc(N[C@@H]2CCN(C3COC3)CC2(F)F)nn2ccc(-c3ccc4nc(C)n(CC(F)F)c4c3)c12` [Compound 142, (R)—N-(3,3-Difluoro-1-(oxetan-3-yl)piperidin-4-yl)-5-(1-(2,2-difluoroethyl)-2-methyl-1H-benzo[d]imidazol-6-yl)-4-methoxypyrrolo[2,1-f][1,2,4]triazin-2-amine], the IC50 stood at 2.7 nM.
As for `COc1nc(N[C@H]2CCN(C3COC3)CC2(F)F)nn2ccc(-c3ccc4nc(C)n(CC(F)F)c4c3)c12` [Compound 143, (S)—N-(3,3-Difluoro-1-(oxetan-3-yl)piperidin-4-yl)-5-(1-(2,2-difluoroethyl)-2-methyl-1H-benzo[d]imidazol-6-yl)-4-methoxypyrrolo[2,1-f][1,2,4]triazin-2-amine], the IC50 came to 10.8 nM.
For the compound `COc1nc(N[C@H]2C[C@@](C)(NC(C)=O)C2)nn2ccc(-c3cc(F)c4nc(C)n(CC(F)F)c4c3)c12` [Compound 148, N-((1s,3s)-3-((5-(1-(2,2-Difluoroethyl)-4-fluoro-2-methyl-1H-benzo[d]imidazol-6-yl)-4-methoxypyrrolo[2,1-f][1,2,4]triazin-2-yl)amino)-1-methylcyclobutyl)acetamide], the IC50 was 1.8 nM.
With `COc1nc(N[C@H]2C[C@](C)(NC(C)=O)C2)nn2ccc(-c3cc(F)c4nc(C)n(CC(F)F)c4c3)c12` [Compound 149, N-((1r,3r)-3-((5-(1-(2,2-Difluoroethyl)-4-fluoro-2-methyl-1H-benzo[d]imidazol-6-yl)-4-methoxypyrrolo[2,1-f][1,2,4]triazin-2-yl)amino)-1-methylcyclobutyl)acetamide] the figure was 1.5 nM.
With `COc1nc(N[C@H]2CC[C@](C)(O)CC2)nn2ccc(-c3cc(F)c4nc(C)n(CC(F)F)c4c3)c12` [Compound 151, trans-4-((5-(1-(2,2-difluoroethyl)-4-fluoro-2-methyl-1H-benzo[d]imidazol-6-yl)-4-methoxypyrrolo[2,1-f][1,2,4]triazin-2-yl)amino)-1-methylcyclohexan-1-ol] the figure was 1.7 nM; with `COc1nc(N[C@@H]2CCN(C3COC3)C[C@H]2F)nn2ccc(-c3cc(F)c4nc(C)n(CC(F)F)c4c3)c12` [Compound 159, 5-(1-(2,2-Difluoroethyl)-4-fluoro-2-methyl-1H-benzo[d]imidazol-6-yl)-N-((3R,4R)-3-fluoro-1-(oxetan-3-yl)piperidin-4-yl)-4-methoxypyrrolo[2,1-f][1,2,4]triazin-2-amine], 2.9 nM; with `COc1nc(N[C@H]2CCN(C3COC3)C[C@H]2F)nn2ccc(-c3cc(F)c4nc(C)n(CC(F)F)c4c3)c12` [Compound 161, 5-(1-(2,2-Difluoroethyl)-4-fluoro-2-methyl-1H-benzo[d]imidazol-6-yl)-N-((3R,4S)-3-fluoro-1-(oxetan-3-yl)piperidin-4-yl)-4-methoxypyrrolo[2,1-f][1,2,4]triazin-2-amine], 3 nM.
The value for `COc1nc(N[C@@H]2CCN(C3COC3)CC2(F)F)nn2ccc(-c3cc(F)c4nc(C)n(CC(F)F)c4c3)c12` [Compound 164, (R)—N-(3,3-Difluoro-1-(oxetan-3-yl)piperidin-4-yl)-5-(1-(2,2-difluoroethyl)-4-fluoro-2-methyl-1H-benzo[d]imidazol-6-yl)-4-methoxypyrrolo[2,1-f][1,2,4]triazin-2-amine] was 2.1 nM.
With `COc1nc(N[C@H]2CC[C@](C)(O)CC2)nn2ccc(-c3cc(F)c4nc(C)n(C(C)C)c4c3)c12` [Compound 168, trans-4-((5-(4-Fluoro-1-isopropyl-2-methyl-1H-benzo[d]imidazol-6-yl)-4-methoxypyrrolo[2,1-f][1,2,4]triazin-2-yl)amino)-1-methylcyclohexan-1-ol], the IC50 stood at 2.7 nM.
The value for `COc1nc(N[C@H]2C[C@@](C)(O)C2)nn2ccc(-c3ccc4nc(C)n(CCO)c4c3)c12` [Compound 169, cis-3-((5-(1-(2-Hydroxyethyl)-2-methyl-1H-benzo[d]imidazol-6-yl)-4-methoxypyrrolo[2,1-f][1,2,4]triazin-2-yl)amino)-1-methylcyclobutan-1-ol] was 2.1 nM.
